Values quoted from earlier work as cited in PMC2916017 (Journal of biomedical optics, 2009).

What was measured:
caspase-3 = target: T1, caspase-3 (Homo sapiens, UniProt P42574); conditions: standard substrate, comparison value; no reference given
T1 sequence (P42574 29-175 limits assumed): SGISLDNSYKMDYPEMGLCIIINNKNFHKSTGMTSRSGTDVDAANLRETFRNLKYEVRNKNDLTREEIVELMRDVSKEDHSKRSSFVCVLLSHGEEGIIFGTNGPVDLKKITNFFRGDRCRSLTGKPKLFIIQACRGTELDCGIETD
T1 sequence (P42574 176-277 limits assumed): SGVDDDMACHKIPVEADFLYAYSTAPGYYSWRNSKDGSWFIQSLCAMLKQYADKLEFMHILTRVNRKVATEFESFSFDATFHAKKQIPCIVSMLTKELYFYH

αvβ3–positive tumor = conditions: previous work; specific activities 200–500 Ci/mmol

Substance	Km (caspase-3)	kcat (caspase-3)	tumor visualization by small animal PET (αvβ3–positive tumor)
Ac-DEVD-AMC	9.7 µM	0.75 s⁻¹	
Ac-DEVD-pNA	11 µM		
^64Cu-DOTA-c(RGDyK) (head to tail)			receptor specific tumor accumulation allowed for αvβ3–positive tumor visualization by small animal PET
